Test results from BindingDB's records for doi:10.1021/jm00151a024 (1986).

Assay: Apparent binding affinity for Alanine racemase from Pseudomonas aeruginosa

Compound	Ki
NC(CCl)P(=O)(O)O (configuration not stated) [(1-Amino-2-chloro-ethyl)-phosphonic acid]	820 µM
NC(C(Cl)Cl)P(=O)(O)O (configuration not stated) [(1-Amino-2,2-dichloro-ethyl)-phosphonic acid]	2000 µM
